The structures appear in SMILES notation. “And” between values parts separate entries of the source, which are not always exact repeats. Equal values may be shown once.

The nature of data set [1]: Chromatographic hydrophobicity index on C18 column (lipophilicity). Format: physicochemical.
For data set [2], the system named is 1321N1 astrocytoma cell line. The experiment in a line: Antiproliferative activity (MTS), 1321N1. As to conditions: Homo sapiens, 1321-N1, 72 h, read-out: IC50 Values 1321N1.
A further data set concerns U87MG glioblastoma cells. Description: Antiproliferative activity (MTS), U87MG. The settings on record: Homo sapiens, U-87 MG, 72 h, read-out: IC50 Values U87MG.
Data set [3] is described as follows: Affinity to phospholipids, IAM column (CHI IAM). As to conditions: IAM.PC.DD2 column, pH 7.4. It is filed as physicochemical.
Description: We began with an assay for lipophilicity, affinity for phospholipids (for 40 compounds), and drug binding to human serum albumin (HSA) (for 20 compounds), using chromatographic protocols developed by Valko [46] and implemented in our laboratory [47]. […] These methods allowed the determination of chromatographic hydrophobicity indices (CHIs), binding to HSA (%HSA), and phospholipids (CHIIAM) using a single-gradient elution experiment and comparison to reference substances.
Data set [4] concerns the target human serum albumin (HSA) (Homo sapiens, UniProt P02768). Description: Binding to HSA, Chiralpak HSA column. The settings on record: Chiralpak HSA column. The source says:
We began with an assay for lipophilicity, affinity for phospholipids (for 40 compounds), and drug binding to human serum albumin (HSA) (for 20 compounds), using chromatographic protocols developed by Valko [46] and implemented in our laboratory. Compounds with the highest affinity for 5-HT6R and those showing the most promising ADMET parameters, including the possibility of BBB penetration, DDI, and lipophilicity, determined in silico in SwissADME [45], were selected for testing. These methods allowed the determination of chromatographic hydrophobicity indices (CHIs), binding to HSA (%HSA), and phospholipids (CHIIAM) using a single-gradient elution experiment and comparison to reference substances.
The use of columns modified with plasma proteins, such as HSA, also allows for the estimation of binding to HSA, which is the most dominant plasma protein (PP). Binding to PP affects drug pharmacokinetics, such as distribution, half-life, and clearance.
The mobile phase flow rate was 1.5 mL/min, and the column was maintained at 30 °C. • Chiralpak® HSA (50 mm × 4 mm; 5 µm with safety guard column; Daicel Chiral Technologies, West Chester, PA, USA), mobile phase A: 50 mM ammonium acetate, mobile phase B: HPLC-grade isopropanol (VWR International, Leuven, Belgium). For the first 15 min, the linear gradient from 0 to 20% isopropanol was applied and then held at 20% isopropanol for 12 min. In the last 5 min of the sequence, the mobile phase mixture received a pure ammonium acetate solution. The column temperature was held at 30 °C, whereas the flow rate was 0.9 mL/min.
The reference substances for the calibration of HSA, C18, and IAM columns were purchased, respectively: acetanilide, butyrophenone, diclofenac, and octanonophenone (Alfa Aesar, Haverhill, MA, USA); acetophenone, benzimidazole, colchicine, indole, indometacin, paracetamol, and theophylline (Sigma-Aldrich, Steinheim, Germany); nicardipine and nizatidine (Cayman Chemical, Ann Arbor, MI, USA); carbamazepine, heptanophenone, hexanophenone, propiophenone, and valerophenone (Acros Organic, Pittsburg, PA, USA). Before chromatographic experiments, solutes were dissolved in dimethyl sulfoxide (Avantor Performance Materials Poland S.A., Gliwice, Poland) to obtain a 200 µg/mL concentration. The detection was performed in the UV region at the wavelength from 190 nm to 300 nm. The injected volume was 5 μL, and each compound was analyzed in triplicate.

In a further data set the target is T1, human 5-HT6 (Homo sapiens, UniProt P50406).
T1 construct: expressed in transfected cells
T1 sequence (P50406 whole entry): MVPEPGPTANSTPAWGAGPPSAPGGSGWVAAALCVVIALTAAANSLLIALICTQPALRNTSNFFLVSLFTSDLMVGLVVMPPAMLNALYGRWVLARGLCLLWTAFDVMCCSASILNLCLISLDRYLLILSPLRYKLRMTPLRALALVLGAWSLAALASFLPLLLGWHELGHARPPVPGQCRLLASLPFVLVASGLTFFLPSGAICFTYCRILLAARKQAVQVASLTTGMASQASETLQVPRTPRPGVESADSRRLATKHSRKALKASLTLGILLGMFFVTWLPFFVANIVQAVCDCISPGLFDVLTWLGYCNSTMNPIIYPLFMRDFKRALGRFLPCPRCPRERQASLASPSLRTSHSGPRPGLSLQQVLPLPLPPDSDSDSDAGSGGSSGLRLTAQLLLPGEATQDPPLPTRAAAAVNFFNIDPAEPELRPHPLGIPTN
The experiment in a line: [3H]-LSD radioligand binding assay, 5-HT6R. The settings on record: HEK293 expressing human 5-HT6R, read-out: 5-HT6 Ki. How it is done:
Next, the ligands’ affinity for the 5-HT6 receptors was evaluated in the [^3H]-LSD radioligand binding assay. Experiments were performed in a stable HEK293 cell line expressing the human 5-HT6R.
The pellets were stored at −80 °C.

Sequence of human serum albumin (HSA) (P02768 25-609): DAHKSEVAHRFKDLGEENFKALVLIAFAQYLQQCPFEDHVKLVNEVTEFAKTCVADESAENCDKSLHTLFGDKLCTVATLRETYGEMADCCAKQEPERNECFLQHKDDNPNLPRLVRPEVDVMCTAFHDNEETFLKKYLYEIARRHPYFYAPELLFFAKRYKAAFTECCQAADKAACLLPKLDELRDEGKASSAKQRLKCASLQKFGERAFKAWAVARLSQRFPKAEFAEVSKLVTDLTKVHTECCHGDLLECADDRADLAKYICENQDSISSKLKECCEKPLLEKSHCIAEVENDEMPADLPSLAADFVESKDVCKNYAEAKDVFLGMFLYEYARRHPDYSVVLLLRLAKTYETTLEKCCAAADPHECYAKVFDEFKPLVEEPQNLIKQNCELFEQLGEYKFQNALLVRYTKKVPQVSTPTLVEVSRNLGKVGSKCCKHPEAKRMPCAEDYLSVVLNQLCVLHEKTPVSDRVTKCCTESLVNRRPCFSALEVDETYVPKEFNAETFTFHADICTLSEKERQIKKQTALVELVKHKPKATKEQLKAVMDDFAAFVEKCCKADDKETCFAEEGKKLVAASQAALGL

As a reminder, the IC50 is the concentration that gives 50% inhibition. Broadly, the melting point is the temperature, or range, at which the solid turns liquid. As usually defined, the Ki is the equilibrium dissociation constant of an inhibitor or competing ligand from its target. Consider `O=S(=O)(NC1=Nc2ccccc2CN1)c1c(Cl)ccc2ccccc12` [PR 41, 2-chloro-N-(3,4-dihydroquinazolin-2-yl)naphthalene-1-sulfonamide], for which the melting point lay within 241 to 244 °C. In data set [1], the “CHI C18 pH 2.6” value is listed as 95.8, the “CHI C18 pH 7.4” value came to 93.1 and the “CHI C18 pH 10.5” value is given as 96.2. Besides, the IC50 in data set [2] is greater than 25 µM. In the data set with U87MG glioblastoma cells, the 50% inhibitory concentration (IC50) is greater than 25 µM. In addition, the “CHI IAM” value in data set [3] is given as 42.9. Besides, in data set [4], the “%HSA” value is reported as 97.1% and the logKHSA was 1.4. In addition, at human 5-HT6, the Ki is 0.21 ± 0.048 µM.

In the case of `Nc1nc2ccccc2n1S(=O)(=O)c1cccc2cccnc12` [PR 9, 1-(quinoline-8-sulfonyl)-1H-1,3-benzodiazol-2-amine], the melting point was in the range of 254 to 256 °C. In data set [1], the “CHI C18 pH 2.6” value came to 75.1, the “CHI C18 pH 7.4” value was determined as 79.2 and the “CHI C18 pH 10.5” value was 79.6. In data set [2], the IC50 is greater than 25 µM. Besides, the IC50 in the data set with U87MG glioblastoma cells is greater than 25 µM. Further, in data set [3], the “CHI IAM” value is on record as 35.7. For the same compound, in data set [4], the “%HSA” value is reported as 94.3% and the logKHSA is 1.1. In addition, the Ki on human 5-HT6 worked out at 0.318 ± 0.018 µM.

For `O=S(=O)(NC1=Nc2ccccc2CN1)c1ccc(Cl)c2ccccc12` [PR 42, 4-chloro-N-(3,4-dihydroquinazolin-2-yl)naphthalene-1-sulfonamide], the melting point lay in the range of 188 to 191 °C. In addition, in data set [1], the “CHI C18 pH 2.6” value stood at 100.1, the “CHI C18 pH 7.4” value was 99.2 and the “CHI C18 pH 10.5” value was 101.6. Moreover, in data set [2], the IC50 is greater than 25 µM. In the data set on U87MG glioblastoma cells, the IC50 was greater than 25 µM. Besides, the “CHI IAM” value in data set [3] came to 45.5. Also, in data set [4], the “%HSA” value worked out at 97.9% and the logKHSA amounted to 1.5. Besides, the inhibition constant (Ki) on human 5-HT6 was 0.268 ± 0.063 µM.

Compound `O=S(=O)(NC1=Nc2ccccc2CN1)c1ccc(OC(F)(F)F)cc1` [PR 17, N -(3,4-dihydroquinazolin-2-yl)-4-(trifluoromethoxy)benzene-1-sulfonamide] displayed a melting point of 161 to 163 °C. For the same compound, in data set [1], the “CHI C18 pH 2.6” value was found to be 94.2, the “CHI C18 pH 7.4” value came to 93.2 and the “CHI C18 pH 10.5” value came out at 95.0. In addition, the IC50 in data set [2] is greater than 25 µM. In addition, the IC50 in the data set on U87MG glioblastoma cells was greater than 25 µM. Also, the “CHI IAM” value in data set [3] amounted to 38.7. In data set [4], the “%HSA” value came to 93.7% and the logKHSA is given as 1.1. Moreover, on human 5-HT6, the Ki came out at 9.85 ± 2.46 µM.

On to `CC1NC(NS(=O)(=O)c2cccc3ccccc23)=Nc2ccc(Br)cc21` (stereo not drawn) [PR 75, N -(6-bromo-4-methyl-3,4-dihydroquinazolin-2-yl)naphthalene-1-sulfonamide], for which the melting point lay in the range of 119 to 123 °C. For the same compound, in data set [1], the “CHI C18 pH 2.6” value was 103.2, the “CHI C18 pH 7.4” value was 101.2 and the “CHI C18 pH 10.5” value came to 105.6. For the same compound, the concentration for half-maximal inhibition (IC50) in data set [2] is greater than 25 µM. Moreover, the IC50 with U87MG glioblastoma cells was greater than 25 µM. In addition, the “CHI IAM” value in data set [3] is given as 46.3. In data set [4], the “%HSA” value was determined as 98.3% and the logKHSA came out at 1.6. In addition, the Ki at human 5-HT6 came to 0.484 ± 0.121 µM.

As for `O=S(=O)(NC1=Nc2c(Cl)cc(Cl)cc2CN1)c1cccc2ccccc12` [PR 51, N -(6,8-dichloro-3,4-dihydroquinazolin-2-yl)naphthalene-1-sulfonamide], the melting point lay in the range of 214 to 219 °C. In data set [1], the “CHI C18 pH 2.6” value amounted to 108.2, the “CHI C18 pH 7.4” value was 106.2 and the “CHI C18 pH 10.5” value was 110.1. In data set [2], the IC50 was greater than 25 µM. Besides, the IC50 in the data set on U87MG glioblastoma cells is greater than 25 µM. For the same compound, the “CHI IAM” value in data set [3] is 48.4. Besides, in data set [4], the “%HSA” value was 99.0% and the logKHSA is on record as 1.7. In addition, the inhibition constant (Ki) at human 5-HT6 turned out to be 0.866 ± 0.199 µM.

Regarding `O=S(=O)(NC1=Nc2cccc(F)c2CN1)c1cccc2ccccc12` [PR 54, N -(5-fluoro-3,4-dihydroquinazolin-2-yl)naphthalene-1-sulfonamide], the melting point was in the range of 191 to 193 °C. Further, in data set [1], the “CHI C18 pH 2.6” value stood at 90.8, the “CHI C18 pH 7.4” value is 89.4 and the “CHI C18 pH 10.5” value is given as 92.4. In addition, the 50% inhibitory concentration (IC50) in data set [2] is greater than 25 µM. Besides, the IC50 in the data set on U87MG glioblastoma cells was greater than 25 µM. Also, the “CHI IAM” value in data set [3] was determined as 40.8. Besides, in data set [4], the “%HSA” value was 96.4% and the logKHSA came to 1.3. The Ki at human 5-HT6 was found to be 0.381 ± 0.088 µM.

For the compound `CC1NC(NS(=O)(=O)c2ccc(Cl)c3ccccc23)=Nc2c(Cl)cc(Cl)cc21` (stereo not drawn) [PR 74, 4-chloro-N-(6,8-dichloro-4-methyl-3,4-dihydroquinazolin-2-yl)naphthalene-1-sulfonamide], the melting point was 215 to 219 °C. Besides, in data set [1], the “CHI C18 pH 2.6” value worked out at 125.7; the “CHI C18 pH 7.4” value was 123 and 123.9; the “CHI C18 pH 10.5” value was determined as 128.1. Also, the IC50 in data set [2] is 13.4 ± 0.8 µM. Also, the IC50 in the data set with U87MG glioblastoma cells was 17 ± 0.4 µM. Besides, in data set [3], the “CHI IAM” value was 55.5. In addition, in data set [4], the “%HSA” value amounted to 99.9% and the logKHSA was found to be 2.0. The Ki at human 5-HT6 was determined as 1.04 ± 0.26 µM.

In turn, `O=S(=O)(NC1=Nc2ccc(Cl)cc2CN1)c1cccc2ccccc12` [PR 47, N -(6-chloro-3,4-dihydroquinazolin-2-yl)naphthalene-1-sulfonamide] had a melting point of 275 to 277 °C. In data set [1], the “CHI C18 pH 2.6” value was found to be 96.5, the “CHI C18 pH 7.4” value was determined as 95.3 and the “CHI C18 pH 10.5” value was 98.1. In addition, the IC50 in data set [2] is greater than 25 µM. For the same compound, in the data set on U87MG glioblastoma cells, the IC50 was greater than 25 µM. Further, in data set [3], the “CHI IAM” value was found to be 44.0. In data set [4], the “%HSA” value is 97.8% and the logKHSA is on record as 1.5. Also, at human 5-HT6, the Ki came to 0.341 ± 0.076 µM.

Compound `Cc1cccc2c1CNC(NS(=O)(=O)c1cccc3ccccc13)=N2` [PR 61, N -(5-methyl-3,4-dihydroquinazolin-2-yl)naphthalene-1-sulfonamide] registered a melting point of 233 to 237 °C. Moreover, in data set [1], the “CHI C18 pH 2.6” value was 93.1, the “CHI C18 pH 7.4” value was found to be 91.8 and the “CHI C18 pH 10.5” value stood at 94.2. In addition, the IC50 in data set [2] is greater than 25 µM. The IC50 in the data set on U87MG glioblastoma cells was greater than 25 µM. Moreover, the “CHI IAM” value in data set [3] was found to be 41.4. In addition, in data set [4], the “%HSA” value came out at 97.3% and the logKHSA was found to be 1.4. Moreover, the Ki on human 5-HT6 was found to be 0.412 ± 0.095 µM.

The compound `O=S(=O)(NC1=Nc2ccccc2CN1)c1cccc2c(Cl)cccc12` [PR 43, 5-chloro-N-(3,4-dihydroquinazolin-2-yl)naphthalene-1-sulfonamide] registered a melting point of 185 to 191 °C. Moreover, in data set [2], the IC50 was greater than 25 µM. In addition, the IC50 with U87MG glioblastoma cells is greater than 25 µM. Besides, the Ki on human 5-HT6 is 0.258 ± 0.046 µM.

`O=S(=O)(NC1=Nc2ccccc2CN1)c1cccc2cc(Cl)ccc12` [PR 44, 6-chloro-N-(3,4-dihydroquinazolin-2-yl)naphthalene-1-sulfonamide] yielded a melting point of 210 to 212 °C. In data set [1], the “CHI C18 pH 2.6” value stood at 98.2, the “CHI C18 pH 7.4” value was found to be 96.5 and the “CHI C18 pH 10.5” value is recorded as 99.5. In data set [2], the IC50 is greater than 25 µM. The IC50 with U87MG glioblastoma cells was greater than 25 µM. Moreover, in data set [3], the “CHI IAM” value came to 44.3. In data set [4], the “%HSA” value is listed as 98.3% and the logKHSA is listed as 1.6. For the same compound, the Ki on human 5-HT6 came out at 0.282 ± 0.065 µM.
